Reference: patent US8906911B2, “Chemokine receptor antagonists” (AbbVie Inc., priority 2012, dated 2014)
Like-named read-outs stand apart in the source and are kept apart here.

What was measured:
[1] = biological target: rat CCR2 (Rattus norvegicus (Rat), UniProt O55193); assay: Inhibition of native agonist (rat MCP-1)-induced intracellular calcium release, calcium flux assay in CHO cells expressing rat CCR2 and Gα16; assay type: cell-based; conditions: read-out: rCCR2 Kb
Description: (§1) CHO cells expressing human CCR2B were generated as follows. cDNA for human CCR2B (cloned from human blood) was cloned into plasmid pcDNA3.1 (from Invitrogen). The resulting plasmids were separately transfected into CHO cells expressing human Gα16 (from Molecular Devices). […] CHO cells expressing rat CCR2 were generated as follows. cDNA for rat CCR2 (cloned from rat macrophage) was cloned into plasmid pEF-flag (from Chinese Academy of Science). The resulting plasmids were transfected into CHO cells expressing human Gα16 (from […]).
(§2) Inhibition of Native Agonist-Induced Intracellular Calcium Release in Cells Expressing hCCR2B or rCCR2
(§3) Calcium flux assays were performed in CHO cells expressing human CCR2B and Gα16 coupling protein, or rat CCR2 and Gα16 coupling protein. All compounds were dissolved in DMSO and assays run at a final DMSO concentration of 0.25% (v/v). Human MCP-1 was purchased from PeproTech and used at a final assay concentration of 2 nM, while rat MCP-1 was purchased from R&D and used at a final assay concentration of 4 nM. Assays with cells expressing human CCR2B were performed with human MCP-1, while assays with cells expressing rat CCR2 were performed with rat MCP-1.
(§4) Briefly, cells were cultured overnight in a microtiter plate at 8000 per well. The next day, the resultant adherent cells were incubated in assay buffer (20 mM HEPES, pH 7.4, 0.1% bovine serum albumin, and 2.5 mM probenocid in Hank's Buffered Saline Solution) containing Calcium 4 dye (Molecular Probes) at 37° C. for 60 minutes. Calcium flux assays were performed on a FLIPR^Tetra instrument (Molecular Devices) by adding compound to the cells followed by addition of native agonist and measuring the change in fluorescence as a function of time. Maximal and minimal values for fluorescence were determined using native agonist (2 nM MCP-1) for human or rat CCR2, or buffer addition, respectively. Fluorescence values were used to calculate the percent inhibition at a given compound concentration and the data fit to a sigmoidal curve in a semi-log plot to determine IC50 values. The Kb value is calculated as Kb=IC50/(1+[agonist]/EC50), where [agonist] is the concentration of agonist used and EC50 is the agonist potency determined in the previous experiments. Mean Kb values and IC50 of the compounds assayed are reported in Table 2 and Table 3 respectively.

[2] = biological target: human CCR2B (Homo sapiens (Human), UniProt P41597); assay: Inhibition of native agonist (human MCP-1)-induced intracellular calcium release, calcium flux assay in CHO cells expressing human CCR2B and Gα16; assay type: cell-based; conditions: for IC50: read-out: hCCR2B IC50; for Kb: read-out: hCCR2B Kb
Description: as §1, §2, §3, §4

Sequence of rat CCR2 (O55193 whole entry): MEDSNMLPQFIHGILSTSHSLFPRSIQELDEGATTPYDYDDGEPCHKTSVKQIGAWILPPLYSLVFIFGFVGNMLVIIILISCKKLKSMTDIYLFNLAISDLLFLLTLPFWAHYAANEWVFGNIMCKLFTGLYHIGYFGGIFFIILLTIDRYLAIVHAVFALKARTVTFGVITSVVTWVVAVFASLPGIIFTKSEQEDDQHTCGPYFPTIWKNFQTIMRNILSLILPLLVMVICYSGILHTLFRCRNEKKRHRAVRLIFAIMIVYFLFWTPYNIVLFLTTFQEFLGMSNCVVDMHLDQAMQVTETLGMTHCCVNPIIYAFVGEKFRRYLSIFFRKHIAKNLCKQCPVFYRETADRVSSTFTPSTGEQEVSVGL
Sequence of human CCR2B (P41597 other isoform, or with tags, fused parts or gaps): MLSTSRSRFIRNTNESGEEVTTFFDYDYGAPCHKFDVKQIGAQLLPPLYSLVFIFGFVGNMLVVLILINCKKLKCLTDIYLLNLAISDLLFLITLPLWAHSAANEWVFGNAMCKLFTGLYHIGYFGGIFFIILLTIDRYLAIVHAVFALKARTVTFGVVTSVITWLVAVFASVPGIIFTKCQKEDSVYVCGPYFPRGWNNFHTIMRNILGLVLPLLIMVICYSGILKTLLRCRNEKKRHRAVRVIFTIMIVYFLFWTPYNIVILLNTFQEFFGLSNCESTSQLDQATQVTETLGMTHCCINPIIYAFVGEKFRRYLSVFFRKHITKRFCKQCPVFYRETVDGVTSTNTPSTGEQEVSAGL

SMILES	Kb [1]	IC50 ([2]; calcium flux, human MCP-1 2 nM)	Kb [2]	IC50 [2]
CO[C@@H]1COCC[C@@H]1N[C@@H]1C[C@H]2CCC[C@@]2(C(=O)N2C[C@@H]3C[C@H]2CN3c2nccc(C(F)(F)F)c2C)C1 (racemic) [Example 38, 1,5-anhydro-2,3-dideoxy-4-O-methyl-3-{[(2R,3aR,6aR)-3a-({(1S,4S)-5-[3-methyl-4-(trifluoromethyl)pyridin-2-yl]-2,5-diazabicyclo[2.2.1]hept-2-yl}carbonyl)octahydropentalen-2-yl]amino}-D-erythro-pentitol]	317 nM	1600 nM	394 nM	–
CO[C@@H]1COCC[C@H]1N[C@@H]1C[C@H]2CCC[C@@]2(C(=O)N2C[C@@H]3C[C@H]2CN3c2cc(C(F)(F)F)cnn2)C1 (stereo in doubt) [Example 6]	29 nM	–	–	–
CN(C1CCOCC1)C1CC2CCCC2(C(=O)N2CCN(c3ccc(C(F)(F)F)cc3)CC2)C1 (centres unmarked) [Compound A, reference compound]	–	> 50000 nM	–	–
O=C(N1CCN(c2ccc(C(F)(F)F)cc2)CC1)C12CCCC1CC(N1CCC(c3ccccc3)CC1)C2 (centres unmarked) [Compound B, reference compound]	–	28000 nM	–	–
CO[C@@H]1COCC[C@@H]1N[C@@H]1C[C@H]2CCC[C@@]2(C(=O)N2C[C@H]3C[C@@H]2CN3c2cc(C(F)(F)F)ccn2)C1 [Example 3, 1,5-anhydro-2,3-dideoxy-4-O-methyl-3-{[(2R,3aR,6aR)-3a-({(1R,4R)-5-[4-(trifluoromethyl)pyridin-2-yl]-2,5-diazabicyclo[2.2.1]hept-2-yl}carbonyl)octahydropentalen-2-yl]amino}-D-erythro-pentitol]	694 nM	2500 nM	614 nM	–
CO[C@@H]1COCC[C@H]1N[C@@H]1C[C@H]2CCC[C@@]2(C(=O)N2C[C@H]3C[C@@H]2CN3c2cc(C(F)(F)F)ccn2)C1 [Example 4, 1,5-anhydro-2,3-dideoxy-4-O-methyl-3-{[(2R,3aR,6aR)-3a-({(1R,4R)-5-[4-(trifluoromethyl)pyridin-2-yl]-2,5-diazabicyclo[2.2.1]hept-2-yl}carbonyl)octahydropentalen-2-yl]amino}-D-threo-pentitol]	> 6940 nM	25000 nM	> 6140 nM	–
CO[C@@H]1COCC[C@@H]1N[C@@H]1C[C@H]2CCC[C@@]2(C(=O)N2C[C@@H]3C[C@H]2CN3c2cc(C(F)(F)F)cnn2)C1 [Example 5, 1,5-anhydro-2,3-dideoxy-4-O-methyl-3-{[(2R,3aR,6aR)-3a-({(1S,4S)-5-[5-(trifluoromethyl)pyridazin-3-yl]-2,5-diazabicyclo[2.2.1]hept-2-yl}carbonyl)octahydropentalen-2-yl]amino}-D-erythro-pentitol]	7 nM	–	–	–
CO[C@@H]1COCC[C@@H]1N[C@@H]1C[C@H]2CCC[C@@]2(C(=O)N2[C@@H]3CC[C@H]2CN(c2cc(C(F)(F)F)ccn2)C3)C1 [Example 8, 1,5-anhydro-2,3-dideoxy-4-O-methyl-3-{[(2R,3aR,6aR)-3a-({(1R,5S)-3-[4-(trifluoromethyl)pyridin-2-yl]-3,8-diazabicyclo[3.2.1]oct-8-yl}carbonyl)octahydropentalen-2-yl]amino}-D-erythro-pentitol]	> 6940 nM	14400 nM	> 3550 nM	–
O=C(O)c1cccc(C2CCN([C@H]3C[C@H]4CCC[C@@]4(C(=O)N4C[C@@H]5C[C@H]4CN5c4cc(C(F)(F)F)ccn4)C3)CC2)c1 [Example 9, 3-{1-[(2S,3aR,6aR)-3a-({(1S,4S)-5-[4-(trifluoromethyl)pyridin-2-yl]-2,5-diazabicyclo[2.2.1]hept-2-yl}carbonyl)octahydropentalen-2-yl]piperidin-4-yl}benzoic acid]	22 nM	–	116 nM	470 nM
O=C(O)c1cccc(C2CCN([C@@H]3C[C@H]4CCC[C@@]4(C(=O)N4C[C@@H]5C[C@H]4CN5c4cc(C(F)(F)F)ccn4)C3)CC2)c1 [Example 10, 3-{1-[(2R,3aR,6aR)-3a-({(1S,4S)-5-[4-(trifluoromethyl)pyridin-2-yl]-2,5-diazabicyclo[2.2.1]hept-2-yl}carbonyl)octahydropentalen-2-yl]piperidin-4-yl}benzoic acid]	38 nM	1600 nM	394 nM	–
CO[C@@H]1COCC[C@@H]1N[C@@H]1C[C@H]2CCC[C@@]2(C(=O)N2C[C@@H]3C[C@H]2CN3c2cc(C(F)(F)F)cc(C)n2)C1 [Example 11, 1,5-anhydro-2,3-dideoxy-4-O-methyl-3-{[(2R,3aR,6aR)-3a-({(1S,4S)-5-[6-methyl-4-(trifluoromethyl)pyridin-2-yl]-2,5-diazabicyclo[2.2.1]hept-2-yl}carbonyl)octahydropentalen-2-yl]amino}-D-erythro-pentitol]	74 nM	–	–	–
CO[C@@H]1COCC[C@@H]1N[C@@H]1C[C@H]2CCC[C@@]2(C(=O)N2C[C@@H]3C[C@H]2CN3c2cccc(C(F)(F)F)c2F)C1 [Example 17, 1,5-anhydro-2,3-dideoxy-3-{[(2R,3aR,6aR)-3a-({(1S,4S)-5-[2-fluoro-3-(trifluoromethyl)phenyl]-2,5-diazabicyclo[2.2.1]hept-2-yl}carbonyl)octahydropentalen-2-yl]amino}-4-O-methyl-D-erythro-pentitol]	160 nM	1290 nM	316 nM	–
CO[C@@H]1COCC[C@@H]1N[C@@H]1C[C@H]2CCC[C@@]2(C(=O)N2C[C@@H]3C[C@H]2CN3c2nccc(C(F)(F)F)c2F)C1 [Example 21, 1,5-anhydro-2,3-dideoxy-3-{[(2R,3aR,6aR)-3a-({(1S,4S)-5-[3-fluoro-4-(trifluoromethyl)pyridin-2-yl]-2,5-diazabicyclo[2.2.1]hept-2-yl}carbonyl)octahydropentalen-2-yl]amino}-4-O-methyl-D-erythro-pentitol]	91 nM	821 nM	201 nM	–
CO[C@@H]1COCC[C@@H]1N[C@@H]1C[C@H]2CCC[C@@]2(C(=O)N2C[C@@H]3C[C@H]2CN3c2cccc(C(F)(F)F)c2C)C1 [Example 23, 1,5-anhydro-2,3-dideoxy-4-O-methyl-3-{[(2R,3aR,6aR)-3a-({(1S,4S)-5-[2-methyl-3-(trifluoromethyl)phenyl]-2,5-diazabicyclo[2.2.1]hept-2-yl}carbonyl)octahydropentalen-2-yl]amino}-D-erythro-pentitol]	158 nM	1110 nM	272 nM	–
CO[C@@H]1COCC[C@@H]1N[C@@H]1C[C@H]2CCC[C@@]2(C(=O)N2C[C@@H]3C[C@H]2CN3c2cc(C)cc(C(F)(F)F)c2)C1 [Example 24, 1,5-anhydro-2,3-dideoxy-4-O-methyl-3-{[(2R,3aR,6aR)-3a-({(1S,4S)-5-[3-methyl-5-(trifluoromethyl)phenyl]-2,5-diazabicyclo[2.2.1]hept-2-yl}carbonyl)octahydropentalen-2-yl]amino}-D-erythro-pentitol]	116 nM	1390 nM	341 nM	–
COc1ccc(N2C[C@@H]3C[C@H]2CN3C(=O)[C@@]23CCC[C@@H]2C[C@@H](N[C@H]2CCOC[C@H]2OC)C3)cc1C(F)(F)F [Example 31, 1,5-anhydro-2,3-dideoxy-3-{[(2R,3aR,6aR)-3a-({(1S,4S)-5-[4-methoxy-3-(trifluoromethyl)phenyl]-2,5-diazabicyclo[2.2.1]hept-2-yl}carbonyl)octahydropentalen-2-yl]amino}-4-O-methyl-D-erythro-pentitol]	22 nM	1020 nM	250 nM	–
CO[C@@H]1COCC[C@@H]1N[C@@H]1C[C@H]2CCC[C@@]2(C(=O)N2C[C@@H]3C[C@H]2CN3c2ncccc2C(F)(F)F)C1 [Example 33, 1,5-anhydro-2,3-dideoxy-4-O-methyl-3-{[(2R,3aR,6aR)-3a-({(1S,4S)-5-[3-(trifluoromethyl)pyridin-2-yl]-2,5-diazabicyclo[2.2.1]hept-2-yl}carbonyl)octahydropentalen-2-yl]amino}-D-erythro-pentitol]	> 1330 nM	–	> 6140 nM	25000 nM
CO[C@@H]1COCC[C@@H]1N[C@@H]1C[C@H]2CCC[C@@]2(C(=O)N2C[C@@H]3C[C@H]2CN3c2ccc(C(F)(F)F)cn2)C1 [Example 34, 1,5-anhydro-2,3-dideoxy-4-O-methyl-3-{[(2R,3aR,6aR)-3a-({(1S,4S)-5-[5-(trifluoromethyl)pyridin-2-yl]-2,5-diazabicyclo[2.2.1]hept-2-yl}carbonyl)octahydropentalen-2-yl]amino}-D-erythro-pentitol]	342 nM	–	682 nM	2780 nM
